{"source": "paper PMC10304486", "about": "“The FilZ Protein Contains a Single PilZ Domain and Facilitates the Swarming Motility of Pseudoalteromonas sp. SM9913” (Microorganisms, 2023)", "assay_in_all_cases": "isothermal titration calorimetry", "assay_type_in_all_cases": "binding", "key": {"FilZ [1]": {"biological_target": "T1, FilZ (Pseudoalteromonas tetraodonis, UniProt A0AA37S473, G101A)", "T1 construct": "gene GCM10007914_23770; single PilZ domain protein", "T1 sequence (A0AA37S473 entry or part of it G101A)": "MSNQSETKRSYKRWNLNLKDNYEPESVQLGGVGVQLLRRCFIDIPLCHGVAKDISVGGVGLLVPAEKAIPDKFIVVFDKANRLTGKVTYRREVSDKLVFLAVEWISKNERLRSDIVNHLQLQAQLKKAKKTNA"}, "FilZ [2]": {"biological_target": "T2, FilZ (Pseudoalteromonas tetraodonis, UniProt A0AA37S473)", "T2 construct": "gene GCM10007914_23770; single PilZ domain protein", "T2 sequence (A0AA37S473 1-133)": "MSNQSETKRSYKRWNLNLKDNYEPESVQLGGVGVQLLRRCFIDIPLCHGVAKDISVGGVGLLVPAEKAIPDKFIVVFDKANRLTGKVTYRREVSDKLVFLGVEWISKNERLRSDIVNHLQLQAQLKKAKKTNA"}, "FilZ [3]": {"biological_target": "T3, FilZ (Pseudoalteromonas tetraodonis, UniProt A0AA37S473, G58A)", "T3 construct": "gene GCM10007914_23770; single PilZ domain protein", "T3 sequence (A0AA37S473 entry or part of it G58A)": "as the sequence (A0AA37S473 entry or part of it G101A) above, with G58A, A101G counted along it"}, "FilZ [4]": {"biological_target": "T4, FilZ (Pseudoalteromonas tetraodonis, UniProt A0AA37S473, D53A)", "T4 construct": "gene GCM10007914_23770; single PilZ domain protein", "T4 sequence (A0AA37S473 entry or part of it D53A)": "as the sequence (A0AA37S473 entry or part of it G101A) above, with D53A, A101G counted along it"}, "FilZ [5]": {"biological_target": "T5, FilZ (Pseudoalteromonas tetraodonis, UniProt A0AA37S473, R9A)", "T5 construct": "gene GCM10007914_23770; single PilZ domain protein", "T5 sequence (A0AA37S473 entry or part of it R9A)": "as the sequence (A0AA37S473 entry or part of it G101A) above, with R9A, A101G counted along it"}, "FilZ [6]": {"biological_target": "T6, FilZ (Pseudoalteromonas tetraodonis, UniProt A0AA37S473, R13A)", "T6 construct": "gene GCM10007914_23770; single PilZ domain protein", "T6 sequence (A0AA37S473 entry or part of it R13A)": "as the sequence (A0AA37S473 entry or part of it G101A) above, with R13A, A101G counted along it"}}, "note": "pKd: −log10 of the molar value."}
{"smiles": "Nc1nc2c(ncn2[C@@H]2O[C@@H]3COP(=O)(O)O[C@H]4[C@@H](O)[C@H](n5cnc6c(=O)[nH]c(N)nc65)O[C@@H]4COP(=O)(O)O[C@H]3[C@H]2O)c(=O)[nH]1", "note": "[c-di-GMP]", "values": [{"measurement": "completely lost the ability to bind", "setting": "FilZ [1]", "result": "Mutants R9A, R13A, D53A, G58A, and G101A all completely lost the ability to bind c-di-GMP"}, {"measurement": "pKd", "setting": "FilZ [2]", "result": 6.64}, {"measurement": "completely lost the ability to bind", "setting": "FilZ [3]", "result": "Mutants R9A, R13A, D53A, G58A, and G101A all completely lost the ability to bind c-di-GMP"}, {"measurement": "completely lost the ability to bind", "setting": "FilZ [4]", "result": "Mutants R9A, R13A, D53A, G58A, and G101A all completely lost the ability to bind c-di-GMP"}, {"measurement": "completely lost the ability to bind", "setting": "FilZ [5]", "result": "Mutants R9A, R13A, D53A, G58A, and G101A all completely lost the ability to bind c-di-GMP"}, {"measurement": "completely lost the ability to bind", "setting": "FilZ [6]", "result": "Mutants R9A, R13A, D53A, G58A, and G101A all completely lost the ability to bind c-di-GMP"}]}
